Data on 28 molecules can be found in patent US20170283440A1, “CARM1 INHIBITORS AND USES THEREOF” (Epizyme, Inc., priority 2014, published 2017).

Where two headings read alike, the source gives them in different places. Some results are limits rather than exact numbers.

One assay deals with T1, Human CARM1 (PRMT4) (Homo sapiens, UniProt Q86X55).
T1 construct: Flag-CARM1-His was eluted with 200 ug/ml FLAG peptide in buffer A; made in house; host or cells: HEK 293F cells infected with recombinant baculovirus (pFastBacMam)
T1 sequence (Q86X55 other isoform, or with tags, fused parts or gaps): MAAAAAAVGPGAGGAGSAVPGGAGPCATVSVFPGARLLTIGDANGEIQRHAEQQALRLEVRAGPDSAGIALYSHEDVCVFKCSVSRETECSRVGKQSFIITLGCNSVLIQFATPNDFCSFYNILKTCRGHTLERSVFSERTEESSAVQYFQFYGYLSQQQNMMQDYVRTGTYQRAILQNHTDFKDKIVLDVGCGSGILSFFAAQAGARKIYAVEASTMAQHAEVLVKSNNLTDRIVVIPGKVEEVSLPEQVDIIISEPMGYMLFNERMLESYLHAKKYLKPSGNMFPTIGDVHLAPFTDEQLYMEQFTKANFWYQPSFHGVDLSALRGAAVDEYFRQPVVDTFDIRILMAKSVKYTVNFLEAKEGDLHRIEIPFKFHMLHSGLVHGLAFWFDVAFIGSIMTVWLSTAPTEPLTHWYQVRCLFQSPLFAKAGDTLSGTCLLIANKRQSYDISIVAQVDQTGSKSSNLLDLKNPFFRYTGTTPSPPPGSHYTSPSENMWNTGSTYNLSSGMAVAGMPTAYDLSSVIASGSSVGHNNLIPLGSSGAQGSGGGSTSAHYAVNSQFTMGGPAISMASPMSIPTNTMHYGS
The assay can be described thus: CARM1 enzyme assay on peptide substrate (3H-SAM Flashplate). Format: biochemical. The following applies: CARM1 0.25 nM, 3H-SAM 30 nM, peptide 250 nM; read-out: Biochem IC50. An excerpt: S-adenosylmethionine (SAM), S-adenosylhomocysteine (SAH), bicine, Tween20, dimethylsulfoxide (DMSO), bovine skin gelatin (BSG), sodium butyrate and Tris(2-carboxyethyl)phosphine hydrochloride solution (TCEP) were purchased from Sigma-Aldrich at the highest level of purity possible. ^3H-SAM was purchase from American Radiolabeled Chemicals with a specific activity of 80 Ci/mmol. 384-well streptavidin Flashplates were purchased from PerkinElmer.
Peptide representative of human histone H3 residues 16-30 was synthesized with an N-terminal linker-affinity tag motif and a C-terminal amide cap by 21st Century Biochemicals. The peptide was purified by high-performance liquid chromatography (HPLC) to greater than 95% purity and confirmed by liquid chromatography mass spectrometry (LC-MS). The sequence was Biot-Ahx-[…]-amide and contained a monomethylated arginine at position 26 (SEQ ID NO.:1).
Human CARM1 (PRMT4) (NM_199141.1) transcript clone was amplified from an HEK 293 cDNA library, incorporating a flanking 5′ sequence encoding a FLAG tag ([…]) (SEQ ID NO.:2) fused directly to Ala 2 of CARM1 and 3′ sequence encoding a hexa His sequence ([…]) (SEQ ID NO.:3) fused directly to Ser 608. The gene sequence encoding isoform1 containing a deletion of amino acids 539-561 was amplified subsequently and subcloned into pFastBacMam (Viva Biotech).
Recombinant baculovirus were generated according to Bac-to-Bac kit instructions (Life Technologies). Protein over-expression was accomplished by infecting exponentially growing HEK 293F cell culture at 1.3×10^6 cell/ml with virus (MOI=10) in the presence of 8 mM sodium butyrate. Infections were carried out at 37° C. for 48 hours, harvested by centrifugation, and stored at −80° C. for purification.
Column was washed with 500 mM NaCl in buffer A and Flag-CARM1-His was eluted with 200 ug/ml FLAG peptide in buffer A. Pooled fractions were dialyzed in 20 mM Tris, 150 mM NaCl, 5% glycerol and 1 mM DTT, pH 7.8. The purity of recovered protein was 94.
The assays were all performed in a buffer consisting of 20 mM Bicine (pH=7.6), 1 mM TCEP, 0.005% BSG, and 0.002% Tween 20, prepared on the day of use. Compounds in 100% DMSO (1 ul) were spotted into a polypropylene 384-well V-bottom plates (Greiner) using a Platemate Plus outfitted with a 384-channel head (Thermo Scientific). DMSO (1 ul) was added to Columns 11, 12, 23, 24, rows A-H for the maximum signal control and 1 ul of SAH, a known product and inhibitor of CARM1, was added to columns 11, 12, 23, 24, rows I—P for the minimum signal control. A cocktail (40 ul) containing the CARM1 enzyme was added by Multidrop Combi (Thermo-Fisher). The compounds were allowed to incubate with CARM1 for 30 min at room temperature, then a cocktail (10 ul) containing ^3H-SAM and peptide was added to initiate the reaction (final volume=51 ul). The final concentrations of the components were as follows: CARM1 was 0.25 nM, ^3H-SAM was 30 nM, peptide was 250 nM, SAH in the minimum signal control wells was 1 mM, and the DMSO concentration was 2%. The assays were stopped by the addition of non-radiolabeled SAM (10 ul) to a final concentration of 300 uM, which dilutes the ^3H-SAM to a level where its incorporation into the peptide substrate is no longer detectable. 50 ul of the reaction in the 384-well polypropylene plate was then transferred to a 384-well Flashplate and the biotinylated peptides were allowed to bind to the streptavidin surface for at least 1 hour before being washed once with 0.1% Tween20 in a Biotek ELx405 plate washer. The plates were then read in a PerkinElmer TopCount plate reader to measure the quantity of ^3H-labeled peptide bound to the Flashplate surface, measured as disintegrations per minute (dpm) or alternatively, referred to as counts per minute (cpm).
where dpm=disintegrations per minute, cmpd=signal in assay well, and min and max are the respective minimum and maximum signal controls. […]

In assay [1] the test system is asymmetric di-methyl PABP1 in RKO cells. The assay can be described thus: RKO methylation assay (In Cell Western for asymmetric di-methyl PABP1). As to conditions: 48 hours incubation, read-out: Cellular IC50. Format: cell-based. An excerpt:
RKO adherent cells were purchased from ATCC (American Type Culture Collection), Manassas, Va., USA. DMEM/Glutamax medium, penicillin-streptomycin, heat inactivated fetal bovine serum, 0.05% trypsin and D-PBS were purchased from Life Technologies, Grand Island, N.Y., USA. Odyssey blocking buffer, 800CW goat anti-rabbit IgG (H+L) antibody, and Licor Odyssey infrared scanner were purchased from Licor Biosciences, Lincoln, Nebr., USA. Asymmetric di-methyl PABP1 antibody was purchased from Cell Signaling Technology, Danvers, Mass., USA. Methanol was purchased from VWR, Franklin, Mass., USA. 10% Tween 20 was purchased from KPL, Inc., Gaithersburg, Md., USA. Paraformaldehyde (PFA) was purchased from EM Sciences. DRAQ5 was purchased from Biostatus Limited, Leicestershire, UK.
RKO adherent cells were maintained in growth medium (DMEM/Glutamax medium supplemented with 10% v/v heat inactivated fetal bovine serum and 100 units/mL penicillin-streptomycin) and cultured at 37° C. under 5% CO2.
Compound (100 nL) from a 96-well source plate was added directly to 384 well cell plate. Plates were incubated at 37° C., 5% CO2 for 48 hours. After two days of incubation, plates were brought to room temperature outside of the incubator for ten minutes and blotted on paper towels to remove cell media. Cells were fixed for 20 minutes at room temperature by adding 50 ul of 8% PFA followed by aspiration of supernatant with the Biotek EL406 plate washer. Cells were then permeabilized by addition of 50 μL of ice cold 100% methanol directly to each well and incubated for 30 min at room temperature. After 30 min, plates were transferred to a Biotek EL406 plate washer and washed 2 times with 100 μL per well of wash buffer (IX PBS). Next 60 μL per well of Odyssey blocking buffer (Odyssey Buffer with 0.1% Tween 20 (v/v)) were added to each plate and incubated 1 hour at room temperature. Blocking buffer was removed and 20 μL per well of primary antibody was added (asymmetric-methyl PABP1) diluted 1:400 in Odyssey buffer with 0.1% Tween 20 (v/v)) and plates were incubated overnight (16 hours) at 4° C. Plates were washed 5 times with 100 μL per well of wash buffer. Next 20 μL per well of secondary antibody was added (1:800 800CW goat anti-rabbit IgG (H+L) antibody, 1:2000 DRAQ5 in Odyssey buffer with 0.1% Tween 20 (v/v)) and incubated for 1 hour at room temperature. The plates were washed 5 times with 100 μL per well wash buffer then 2 times with 100 μL per well of water. Plates were allowed to dry at room temperature then imaged on the Licor Odyssey machine which measures integrated intensity at 700 nm and 800 nm wavelengths. Both 700 and 800 channels were scanned.
First, the ratio for each well was determined by:
Each plate included fourteen control wells of DMSO only treatment (minimum inhibition) as well as fourteen control wells for maximum inhibition treated with 20 μM of a reference compound. The average of the ratio values for each control type was calculated and used to determine the percent […] for each test well in the plate. Reference compound was serially diluted three-fold in DMSO for a total of nine test concentrations, beginning at 20 μM.
Percent inhibition was determined and IC50 curves were generated using triplicate wells per concentration of compound.

The term IC50 denotes the midpoint of a concentration-inhibition curve. `Cc1nn(C(C)C)c2nc(-c3cccc(OCC(O)CN)c3)cc(N3CCOCC3)c12` (centres unmarked) [Example 1-2]: the results for the IC50 (on Human CARM1 (PRMT4); in assay [1] (Homo sapiens)) were below 0.1 µM and 10 to 20 µM, respectively.
In the same order, the values of `CNCC(O)COc1cccc(-c2cc(C(=O)NCc3c(C)cc(C)[nH]c3=O)c3cnn(C(C)C)c3n2)c1` (centres unmarked) [Example 1-3] are below 0.1 µM and above 20 µM.
In the case of `CCOC(=O)c1c(-c2cccc(OCC(O)CNC)c2)nc2c(cnn2C(C)C)c1N1CCOCC1` (centres unmarked) [Example 1-5], the IC50 was 0.1 to 1 µM on Human CARM1 (PRMT4) and above 20 µM in assay [1] (Homo sapiens).
In the same order, the values of `CNCC(O)COc1cc(OC)cc(-c2cc(-c3cnc4[nH]ccc4c3)n3ncc(C(C)C)c3n2)c1` (centres unmarked) [Example 1-6] are below 0.1 µM and above 20 µM.
On to `CNCC(O)COc1cc(OC)cc(-c2cc(-c3cnc4[nH]ccc4c3)nc3c(C(C)C)cnn23)c1` (centres unmarked) [Example 1-7], for which the IC50 on Human CARM1 (PRMT4) was below 0.1 µM; in assay [1] (Homo sapiens) it was above 20 µM.
With `CC(C)n1ncc2c(N3CCOCC3)cc(-c3cccc(OC[C@H](O)CN)c3)nc21` [Example 1-8], the IC50 at Human CARM1 (PRMT4) was below 0.1 µM; in assay [1] (Homo sapiens), 10 to 20 µM.
On the same counts, the results for `CNCC(O)COc1cc(Cl)cc(-c2cc(N(C)C3CCOCC3)n3ncc(C4CC4)c3n2)c1` (centres unmarked) [Example 1-9] are below 0.1 µM and above 20 µM.
Take `CNCC(O)COc1cccc(-c2cc(NC3CCOCC3)c3c(C4CC4)nn(C(C)C)c3n2)c1` (centres unmarked) [Example 2-2]: the IC50 on Human CARM1 (PRMT4) was below 0.1 µM; in assay [1] (Homo sapiens), above 20 µM.
As to `CNCC(O)COc1cc(Cl)cc(-c2cc(NC3CCOCC3)c3cnn(C(C)C)c3n2)c1` (centres unmarked) [Example 2-4], the IC50 was below 0.1 µM at Human CARM1 (PRMT4) and above 20 µM in assay [1] (Homo sapiens).
In the same order, the values of `CNCC(O)COc1cc(OC)cc(-c2cc(N(C)C3CCOCC3)n3ncc(C(C)C)c3n2)c1` (centres unmarked) [Example 2-6] are below 0.1 µM and 5 to 10 µM.
On the same counts, the results for `CNCC(O)COc1cc(Cl)cc(-c2cc(-c3cc[nH]n3)nc3c(C(C)C)cnn23)c1` (centres unmarked) [Example 2-7] are below 0.1 µM and above 20 µM.
In the case of `Cc1cc(C)c(CNC(=O)c2cc(-c3cccc(OCC(O)CN)c3)nc3c2cnn3C(C)C)c(=O)[nH]1` (centres unmarked) [Example 2-8], the IC50 on Human CARM1 (PRMT4) is below 0.1 µM; in assay [1] (Homo sapiens) it was above 20 µM.
On to `CNCC(O)COc1cc(OC)cc(-c2cc(N(C)C3CCOCC3)n3ncc(C4CC4)c3n2)c1` (centres unmarked) [Example 2-9], for which the half-maximal inhibitory concentration (IC50) at Human CARM1 (PRMT4) was below 0.1 µM; in assay [1] (Homo sapiens), above 20 µM.
On to `CNCC(O)COc1cccc(-c2cc(N3CCOCC3)c3c(C)nn(C(C)C)c3n2)c1` (centres unmarked) [Example 3-2], for which the figures for the IC50 (at Human CARM1 (PRMT4); in assay [1] (Homo sapiens)) were below 0.1 µM and 10 to 20 µM, respectively.
In the same order, the values of `CC(C)n1ncc2c(C(=O)NCC3CCOCC3)cc(-c3cccc(OCC(O)CN)c3)nc21` (centres unmarked) [Example 3-3] are 0.1 to 1 µM and above 20 µM.
Regarding `CNCC(O)COc1cc(OC)cc(-c2cc(N(C)c3cncnc3)c3cnn(C(C)C)c3n2)c1` (centres unmarked) [Example 3-4], the IC50 at Human CARM1 (PRMT4) was below 0.1 µM; in assay [1] (Homo sapiens), 10 to 20 µM.
In the case of `CNCC(O)COc1cccc(-c2nc(NC3CCOCC3)c3cnn(C(C)(C)C)c3n2)c1` (centres unmarked) [Example 3-5], the results for the IC50 (on Human CARM1 (PRMT4); in assay [1]) were below 0.1 µM and 5 to 10 µM, respectively.
On to `CNCC(O)COc1cc(-c2cc(N3CCOCC3)n3ncc(C(C)C)c3n2)cc(C2CC2)c1` (centres unmarked) [Example 3-6], for which the IC50 was below 0.1 µM on Human CARM1 (PRMT4) and above 20 µM in assay [1] (Homo sapiens).
For `CNCC(O)COc1cc(OC)cc(-c2cc(N3CCOCC3)nc3c(C4CC4)cnn23)c1` (centres unmarked) [Example 3-7], the results for the IC50 (at Human CARM1 (PRMT4); in assay [1] (Homo sapiens)) were below 0.1 µM and 10 to 20 µM, respectively.
In the same order, the values of `CNCC(O)COc1cccc(-c2cc(NCC#N)c3cnn(C(C)C)c3n2)c1` (centres unmarked) [Example 3-8] are 0.1 to 1 µM and above 20 µM.
Turning to `CNCC(O)COc1cccc(-c2cc(N(C)Cc3ccccn3)c3cnn(C(C)C)c3n2)c1` (centres unmarked) [Example 3-9], the IC50 was below 0.1 µM at Human CARM1 (PRMT4) and 10 to 20 µM in assay [1] (Homo sapiens).
Turning to `CNCC(O)COc1cccc(-c2cc(NC3CCOCC3)c3c(C)nn(C(C)C)c3n2)c1` (centres unmarked) [Example 4-2], the IC50 at Human CARM1 (PRMT4) is below 0.1 µM; in assay [1] (Homo sapiens), 10 to 20 µM.
On the same counts, the results for `Cc1cc(OCC(O)CN)cc(-c2cc(N3CCOCC3)c3cnn(C(C)C)c3n2)c1` (centres unmarked) [Example 4-4] are below 0.1 µM and 10 to 20 µM.
For the molecule `CNCC(O)COc1cccc(-c2cc(-c3cnc4[nH]ccc4c3)nc3c(C(C)C)cnn23)c1` (centres unmarked) [Example 4-7], the IC50 is below 0.1 µM on Human CARM1 (PRMT4) and above 20 µM in assay [1] (Homo sapiens).
In the same order, the values of `CC(C)c1cnn2c(N3CCOCC3)cc(-c3cccc(OCC(O)CN)c3)nc12` (centres unmarked) [Example 4-8] are below 0.1 µM and above 20 µM.
For `CNCC(O)COc1cccc(-c2cc(N(C)[C@H]3CCOC3)n3ncc(C(C)C)c3n2)c1` (some centres unmarked) [Example 14-6], at Human CARM1 (PRMT4), the IC50 is below 0.1 µM.
As to `CNCC(O)COc1cccc(-c2cc(N(C)C3CCOCC3)n3ncc(C(C)(C)C)c3n2)c1` (centres unmarked) [Example 16-8], the IC50 on Human CARM1 (PRMT4) is below 0.1 µM.
Still for that read-out and setting: the value for `CNCC(O)COc1cc(OC)cc(-c2cc(N(C)C3CCOCC3)n3ncc(C4CC4)c3n2)c1` (centres unmarked) [Example 44-6] was below 0.1 µM.
